Assays:
[1] = biological target: Tyrosine-protein kinase ABL2 (Homo sapiens) (UniProt P42684); conditions: Compound concentration 1000.0 nM
[2] = biological target: Activin receptor type-1-like (Homo sapiens) (UniProt P37023); conditions: Compound concentration 1000.0 nM
[3] = biological target: Atypical kinase COQ8A, mitochondrial (Homo sapiens) (UniProt Q8NI60); conditions: Compound concentration 1000.0 nM
[4] = biological target: RAC-alpha serine/threonine-protein kinase (Homo sapiens) (UniProt P31749); conditions: Compound concentration 1000.0 nM
[5] = biological target: Bone morphogenetic protein receptor type-1A (Homo sapiens) (UniProt P36894); conditions: Compound concentration 1000.0 nM
[6] = biological target: Serine/threonine-protein kinase 17B (Homo sapiens) (UniProt O94768); conditions: Compound concentration 1000.0 nM
[7] = system: Receptor-type tyrosine-protein kinase FLT3 (Homo sapiens), P36888 [D835V]; conditions: Compound concentration 1000.0 nM
[8] = system: Receptor-type tyrosine-protein kinase FLT3 (Homo sapiens), P36888 [N841I]; conditions: Compound concentration 1000.0 nM
[9] = biological target: Tyrosine-protein kinase Fyn (Homo sapiens) (UniProt P06241); conditions: Compound concentration 1000.0 nM
[10] = biological target: Tyrosine-protein kinase JAK3 (Homo sapiens) (UniProt P52333); conditions: Compound concentration 1000.0 nM
Tyrosine-protein kinase JAK3 (Homo sapiens), sequence (P52333 whole entry): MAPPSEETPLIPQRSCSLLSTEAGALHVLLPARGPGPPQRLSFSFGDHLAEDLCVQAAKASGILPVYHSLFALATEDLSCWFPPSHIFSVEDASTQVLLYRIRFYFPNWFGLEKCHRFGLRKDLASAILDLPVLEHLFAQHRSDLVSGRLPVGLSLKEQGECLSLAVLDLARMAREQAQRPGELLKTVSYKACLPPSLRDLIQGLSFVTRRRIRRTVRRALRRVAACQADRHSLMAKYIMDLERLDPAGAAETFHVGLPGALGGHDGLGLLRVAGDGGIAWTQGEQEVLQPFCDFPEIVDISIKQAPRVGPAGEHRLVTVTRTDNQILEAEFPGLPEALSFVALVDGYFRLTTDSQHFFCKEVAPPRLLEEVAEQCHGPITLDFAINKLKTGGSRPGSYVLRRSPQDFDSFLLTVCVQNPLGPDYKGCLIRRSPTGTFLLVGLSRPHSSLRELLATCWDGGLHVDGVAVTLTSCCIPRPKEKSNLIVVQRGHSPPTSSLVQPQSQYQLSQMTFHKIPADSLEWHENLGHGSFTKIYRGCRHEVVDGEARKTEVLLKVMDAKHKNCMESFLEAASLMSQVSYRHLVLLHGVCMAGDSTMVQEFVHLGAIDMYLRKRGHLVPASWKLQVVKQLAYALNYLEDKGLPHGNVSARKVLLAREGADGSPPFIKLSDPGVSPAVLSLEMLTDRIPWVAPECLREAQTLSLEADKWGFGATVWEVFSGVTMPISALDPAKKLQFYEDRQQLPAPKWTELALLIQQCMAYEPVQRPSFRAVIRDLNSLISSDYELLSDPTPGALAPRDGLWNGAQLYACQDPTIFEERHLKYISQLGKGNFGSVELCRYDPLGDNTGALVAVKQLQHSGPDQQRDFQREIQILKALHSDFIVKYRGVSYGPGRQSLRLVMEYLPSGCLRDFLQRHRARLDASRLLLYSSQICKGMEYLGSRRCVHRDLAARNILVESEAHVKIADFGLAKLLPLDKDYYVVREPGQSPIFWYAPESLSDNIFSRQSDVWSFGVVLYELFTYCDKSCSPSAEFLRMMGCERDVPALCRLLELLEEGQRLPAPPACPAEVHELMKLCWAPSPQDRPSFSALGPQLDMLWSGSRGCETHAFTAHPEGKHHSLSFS

[11] = system: Mast/stem cell growth factor receptor Kit (Homo sapiens), P10721 [V559D,V654A]; conditions: Compound concentration 1000.0 nM
Mast/stem cell growth factor receptor Kit (Homo sapiens), P10721 [V559D,V654A], sequence (P10721 whole entry V559D/V654A): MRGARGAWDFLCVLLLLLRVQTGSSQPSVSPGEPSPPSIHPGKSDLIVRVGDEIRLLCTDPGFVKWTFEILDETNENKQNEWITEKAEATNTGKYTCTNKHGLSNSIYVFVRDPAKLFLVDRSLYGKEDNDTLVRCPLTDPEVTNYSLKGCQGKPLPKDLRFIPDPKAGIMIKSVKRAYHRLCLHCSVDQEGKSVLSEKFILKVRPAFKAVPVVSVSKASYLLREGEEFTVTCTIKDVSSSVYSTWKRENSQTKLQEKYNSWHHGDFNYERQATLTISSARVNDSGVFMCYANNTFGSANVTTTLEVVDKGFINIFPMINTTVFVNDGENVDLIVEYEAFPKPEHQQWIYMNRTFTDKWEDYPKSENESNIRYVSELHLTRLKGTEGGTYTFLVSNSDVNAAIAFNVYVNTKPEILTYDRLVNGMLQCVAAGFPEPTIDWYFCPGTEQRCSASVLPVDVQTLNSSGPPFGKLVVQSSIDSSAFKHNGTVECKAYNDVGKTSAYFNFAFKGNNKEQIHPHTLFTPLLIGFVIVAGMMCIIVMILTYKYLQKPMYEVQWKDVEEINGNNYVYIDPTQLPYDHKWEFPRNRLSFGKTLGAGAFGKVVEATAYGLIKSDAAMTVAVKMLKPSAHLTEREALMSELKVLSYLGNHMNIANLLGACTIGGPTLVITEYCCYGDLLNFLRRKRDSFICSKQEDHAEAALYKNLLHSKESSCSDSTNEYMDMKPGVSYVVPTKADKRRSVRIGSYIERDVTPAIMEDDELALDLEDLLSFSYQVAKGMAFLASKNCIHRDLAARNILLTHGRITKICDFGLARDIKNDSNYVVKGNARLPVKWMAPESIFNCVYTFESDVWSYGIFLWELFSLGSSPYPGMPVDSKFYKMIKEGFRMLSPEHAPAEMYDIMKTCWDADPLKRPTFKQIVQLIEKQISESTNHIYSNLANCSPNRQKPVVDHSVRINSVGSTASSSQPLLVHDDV

[12] = biological target: Tyrosine-protein kinase Lck (Homo sapiens) (UniProt P06239); conditions: Compound concentration 1000.0 nM
Tyrosine-protein kinase Lck (Homo sapiens), sequence (P06239 2-509 limits assumed): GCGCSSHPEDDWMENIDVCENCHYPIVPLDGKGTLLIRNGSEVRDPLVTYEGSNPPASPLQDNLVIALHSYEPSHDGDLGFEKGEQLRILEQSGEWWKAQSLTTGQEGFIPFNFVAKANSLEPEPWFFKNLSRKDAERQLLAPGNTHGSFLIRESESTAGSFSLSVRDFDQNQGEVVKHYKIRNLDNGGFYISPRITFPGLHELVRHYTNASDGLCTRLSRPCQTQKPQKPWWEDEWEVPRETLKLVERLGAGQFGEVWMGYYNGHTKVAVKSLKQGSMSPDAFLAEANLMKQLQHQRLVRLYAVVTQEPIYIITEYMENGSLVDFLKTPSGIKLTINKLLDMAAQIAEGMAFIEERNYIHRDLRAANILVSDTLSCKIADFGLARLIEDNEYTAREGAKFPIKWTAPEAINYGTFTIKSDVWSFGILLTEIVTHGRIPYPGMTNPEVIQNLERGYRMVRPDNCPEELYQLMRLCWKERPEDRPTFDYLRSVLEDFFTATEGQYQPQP

[13] = biological target: Mitogen-activated protein kinase kinase kinase kinase 3 (Homo sapiens) (UniProt Q8IVH8); conditions: Compound concentration 1000.0 nM
[14] = biological target: Serine/threonine-protein kinase Nek1 (Homo sapiens) (UniProt Q96PY6); conditions: Compound concentration 1000.0 nM
[15] = biological target: Serine/threonine-protein kinase PAK 4 (Homo sapiens) (UniProt O96013); conditions: Compound concentration 1000.0 nM
[16] = biological target: Cyclin-dependent kinase 14 (Homo sapiens) (UniProt O94921); conditions: Compound concentration 1000.0 nM
[17] = biological target: Membrane-associated tyrosine- and threonine-specific cdc2-inhibitory kinase (Homo sapiens) (UniProt Q99640); conditions: Compound concentration 1000.0 nM
[18] = biological target: Ribosomal protein S6 kinase alpha-1 (Homo sapiens) (UniProt Q15418); conditions: Compound concentration 1000.0 nM
Ribosomal protein S6 kinase alpha-1 (Homo sapiens), sequence (Q15418 whole entry): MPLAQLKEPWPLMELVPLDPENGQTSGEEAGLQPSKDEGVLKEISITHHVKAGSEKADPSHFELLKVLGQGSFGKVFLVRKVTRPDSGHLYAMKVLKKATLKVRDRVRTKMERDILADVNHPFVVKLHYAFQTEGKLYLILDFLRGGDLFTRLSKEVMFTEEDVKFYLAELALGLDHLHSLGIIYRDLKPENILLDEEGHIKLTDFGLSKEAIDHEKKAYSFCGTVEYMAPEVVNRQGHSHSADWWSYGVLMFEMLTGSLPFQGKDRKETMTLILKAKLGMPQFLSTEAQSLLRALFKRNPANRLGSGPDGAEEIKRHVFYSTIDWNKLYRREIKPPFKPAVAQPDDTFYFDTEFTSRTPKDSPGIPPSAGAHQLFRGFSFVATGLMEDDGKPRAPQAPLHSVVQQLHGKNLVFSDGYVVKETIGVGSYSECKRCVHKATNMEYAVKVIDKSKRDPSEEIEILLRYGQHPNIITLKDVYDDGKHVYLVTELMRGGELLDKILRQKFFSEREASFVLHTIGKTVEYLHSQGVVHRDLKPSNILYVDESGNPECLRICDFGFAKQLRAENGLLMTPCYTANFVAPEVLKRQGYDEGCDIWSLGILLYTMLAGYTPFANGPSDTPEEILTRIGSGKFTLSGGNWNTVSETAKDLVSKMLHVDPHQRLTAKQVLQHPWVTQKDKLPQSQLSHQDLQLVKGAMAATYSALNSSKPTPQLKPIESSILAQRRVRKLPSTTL

[19] = biological target: Serine/threonine-protein kinase Sgk1 (Homo sapiens) (UniProt O00141); conditions: Compound concentration 1000.0 nM
Serine/threonine-protein kinase Sgk1 (Homo sapiens), sequence (O00141 whole entry): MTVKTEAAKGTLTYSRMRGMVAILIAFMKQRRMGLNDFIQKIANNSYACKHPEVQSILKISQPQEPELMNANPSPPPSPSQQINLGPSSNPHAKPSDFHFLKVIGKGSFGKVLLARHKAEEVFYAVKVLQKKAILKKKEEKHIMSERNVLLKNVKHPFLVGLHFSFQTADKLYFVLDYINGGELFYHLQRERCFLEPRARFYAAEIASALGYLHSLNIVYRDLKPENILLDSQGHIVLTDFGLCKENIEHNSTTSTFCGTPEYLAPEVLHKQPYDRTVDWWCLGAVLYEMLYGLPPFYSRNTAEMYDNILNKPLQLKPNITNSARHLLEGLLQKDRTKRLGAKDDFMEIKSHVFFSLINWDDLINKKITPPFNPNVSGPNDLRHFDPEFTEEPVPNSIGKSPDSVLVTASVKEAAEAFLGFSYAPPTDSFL

[20] = biological target: Angiopoietin-1 receptor (Homo sapiens) (UniProt Q02763); conditions: Compound concentration 1000.0 nM
[21] = biological target: Tyrosine-protein kinase Yes (Homo sapiens) (UniProt P07947); conditions: Compound concentration 1000.0 nM
[22] = biological target: 5-hydroxytryptamine receptor 1A (Homo sapiens) (UniProt P08908); conditions: Compound concentration 10.0 uM
[23] = biological target: 5-hydroxytryptamine receptor 2C (Homo sapiens) (UniProt P28335); conditions: Compound concentration 10.0 uM
[24] = biological target: Delta-type opioid receptor (Homo sapiens) (UniProt P41143); conditions: Compound concentration 10.0 uM
Delta-type opioid receptor (Homo sapiens), sequence (P41143 whole entry): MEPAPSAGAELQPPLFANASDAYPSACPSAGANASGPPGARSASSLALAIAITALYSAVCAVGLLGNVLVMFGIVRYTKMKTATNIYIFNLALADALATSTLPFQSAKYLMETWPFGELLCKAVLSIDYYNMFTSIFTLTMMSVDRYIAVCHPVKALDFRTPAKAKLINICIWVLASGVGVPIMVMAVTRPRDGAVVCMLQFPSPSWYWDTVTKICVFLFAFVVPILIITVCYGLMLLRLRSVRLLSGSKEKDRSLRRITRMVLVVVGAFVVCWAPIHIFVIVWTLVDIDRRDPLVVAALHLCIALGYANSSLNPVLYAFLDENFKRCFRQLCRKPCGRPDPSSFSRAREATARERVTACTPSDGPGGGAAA

[25] = biological target: Muscarinic acetylcholine receptor M5 (Homo sapiens) (UniProt P08912); conditions: Compound concentration 10.0 uM
[26] = biological target: Sigma non-opioid intracellular receptor 1 (Homo sapiens) (UniProt Q99720); conditions: Compound concentration 10.0 uM
Sigma non-opioid intracellular receptor 1 (Homo sapiens), sequence (Q99720 whole entry): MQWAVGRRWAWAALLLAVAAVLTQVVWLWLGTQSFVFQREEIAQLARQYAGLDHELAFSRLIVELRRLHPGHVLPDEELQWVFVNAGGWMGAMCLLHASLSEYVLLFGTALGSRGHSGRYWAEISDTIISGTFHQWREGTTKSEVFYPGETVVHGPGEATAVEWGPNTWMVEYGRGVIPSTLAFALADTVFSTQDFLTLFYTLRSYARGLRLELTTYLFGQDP

[27] = biological target: 5-hydroxytryptamine receptor 5A (Homo sapiens) (UniProt P47898); conditions: Compound concentration 10.0 uM
[28] = biological target: Serotonin 1 (5-HT1) receptor (Rattus norvegicus) (UniProt P28564+P30940+P19327+P28565); conditions: Compound concentration 10.0 uM
[29] = biological target: Adenosine receptor A1 (Homo sapiens) (UniProt P30542); conditions: Compound concentration 10.0 uM
[30] = biological target: Angiotensin-converting enzyme (Oryctolagus cuniculus) (UniProt P12822); conditions: Compound concentration 10.0 uM
[31] = biological target: Sodium/potassium-transporting ATPase subunit alpha-1 (Sus scrofa) (UniProt P05024); conditions: Compound concentration 10.0 uM
[32] = biological target: Beta-2 adrenergic receptor (Rattus norvegicus) (UniProt P10608); conditions: Compound concentration 10.0 uM
[33] = biological target: Nitric oxide synthase 3 (Rattus norvegicus) (UniProt Q62600); conditions: Compound concentration 10.0 uM
[34] = biological target: D(2) dopamine receptor (Homo sapiens) (UniProt P14416); conditions: Compound concentration 10.0 uM
[35] = biological target: D(3) dopamine receptor (Homo sapiens) (UniProt P35462); conditions: Compound concentration 10.0 uM
[36] = biological target: Nitric oxide synthase 3 (Bos taurus) (UniProt P29473); conditions: Compound concentration 10.0 uM
[37] = biological target: ATP-sensitive inward rectifier potassium channel 1 isoform X1 (Mesocricetus auratus) (UniProt A0A1U8CU73); conditions: Compound concentration 10.0 uM
[38] = biological target: Leukotriene C4 synthase (Cavia porcellus) (UniProt A6XA80); conditions: Compound concentration 10.0 uM
Leukotriene C4 synthase (Cavia porcellus), sequence (A6XA80 whole entry): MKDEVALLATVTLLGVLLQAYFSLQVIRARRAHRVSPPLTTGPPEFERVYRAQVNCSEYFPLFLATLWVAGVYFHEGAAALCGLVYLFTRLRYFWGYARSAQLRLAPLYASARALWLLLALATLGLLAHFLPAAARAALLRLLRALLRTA

[39] = biological target: Calpain-1 catalytic subunit (Homo sapiens) (UniProt P07384); conditions: Compound concentration 10.0 uM
[40] = biological target: Acetylcholine receptor subunit alpha (Homo sapiens) (UniProt P02708); conditions: Compound concentration 10.0 uM
[41] = biological target: Sodium-dependent noradrenaline transporter (Homo sapiens) (UniProt P23975); conditions: Compound concentration 10.0 uM
[42] = biological target: Platelet-activating factor receptor (Homo sapiens) (UniProt P25105); conditions: Compound concentration 10.0 uM
[43] = biological target: 3',5'-cyclic-AMP phosphodiesterase 4A (Homo sapiens) (UniProt P27815); conditions: Compound concentration 10.0 uM
[44] = biological target: Interstitial collagenase (Homo sapiens) (UniProt P03956); conditions: Compound concentration 10.0 uM
[45] = biological target: Androgen receptor (Rattus norvegicus) (UniProt P15207); conditions: Compound concentration 10.0 uM

Atypical kinase COQ8A, mitochondrial (Homo sapiens), sequence (Q8NI60 163-647 limits assumed): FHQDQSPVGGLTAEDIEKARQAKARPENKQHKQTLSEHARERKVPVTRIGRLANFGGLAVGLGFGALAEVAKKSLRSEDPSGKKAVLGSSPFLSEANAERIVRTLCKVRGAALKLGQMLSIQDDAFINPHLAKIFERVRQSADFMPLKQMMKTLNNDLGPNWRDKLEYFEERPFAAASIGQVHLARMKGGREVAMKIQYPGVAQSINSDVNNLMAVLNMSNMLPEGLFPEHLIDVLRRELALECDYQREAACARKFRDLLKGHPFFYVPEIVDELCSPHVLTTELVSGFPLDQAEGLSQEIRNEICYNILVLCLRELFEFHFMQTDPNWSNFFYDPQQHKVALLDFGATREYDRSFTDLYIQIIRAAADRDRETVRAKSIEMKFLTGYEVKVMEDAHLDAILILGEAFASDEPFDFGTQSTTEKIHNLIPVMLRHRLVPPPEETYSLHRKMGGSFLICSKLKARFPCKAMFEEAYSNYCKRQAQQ

CCS(=O)(=O)c1cc2cc(C[C@@](O)(CC(C)(C)c3ccc(F)cc3C(N)=O)C(F)(F)F)[nH]c2cn1
inactive: residual activity [1] 88% | residual activity [2] 100% | residual activity [3] 95% | residual activity [4] 86% | residual activity [5] 100% | residual activity [6] 76% | residual activity [7] 79% | residual activity [8] 100% | residual activity [9] 100% | residual activity [10] 76% | residual activity [11] 81% | residual activity [12] 81% | residual activity [13] 82% | residual activity [14] 53% | residual activity [15] 88% | residual activity [16] 100% | residual activity [17] 67% | residual activity [19] 79% | residual activity [20] 94% | residual activity [21] 100% | inhibition [22] -7.37% | inhibition [23] 7.33% | inhibition [24] -3.88% | inhibition [25] -0.62% | inhibition [26] 8.26%
active: residual activity [18] 0%

CCS(=O)(=O)c1cc2cc(C[C@](O)(CC(C)(C)c3ccc(F)cc3C(N)=O)C(F)(F)F)[nH]c2cn1
active: residual activity [14] 45%
inactive: residual activity [1] 80% | residual activity [2] 100% | residual activity [3] 92% | residual activity [4] 100% | residual activity [5] 100% | residual activity [6] 74% | residual activity [7] 95% | residual activity [8] 93% | residual activity [9] 77% | residual activity [10] 72% | residual activity [11] 79% | residual activity [12] 100% | residual activity [13] 83% | residual activity [15] 100% | residual activity [16] 100% | residual activity [17] 100% | residual activity [18] 87% | residual activity [19] 100% | residual activity [20] 90% | residual activity [21] 100% | inhibition [23] 0.64% | inhibition [27] 12.2% | inhibition [24] -2.58% | inhibition [25] 1.86% | inhibition [26] 10.1% | residual activity [28] 118% | residual activity [29] 107% | residual activity [30] 109% | residual activity [31] 115% | residual activity [32] 75% | residual activity [33] 99% | residual activity [34] 90% | residual activity [35] 81% | residual activity [36] 85% | residual activity [37] 104% | residual activity [38] 104% | residual activity [39] 98% | residual activity [40] 101% | residual activity [41] 102% | residual activity [42] 95% | residual activity [43] 81% | residual activity [44] 94% | residual activity [45] 101%

— ChEMBL document CHEMBL4507277
